Assay results: the supplement of paper PMC10307832

What was measured:
Test in all cases: relative viability (nuclei count vs DMSO), 5 days (fraction); higher = more cells survive
[1] = compound: C1CC(C2=C(C1)C3=C(N2)C=CC(=C3)Cl)C(=O)N [Selisistat] + Nc1ncn([C@H]2C[C@H](O)[C@@H](CO)O2)c(=O)n1 [Decitabine] (partner 2 µM)
Outline: (§1)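 Each reported value is a median over duplicate plates. It expresses relative viability: treated-well nuclei count divided by vehicle-well nuclei count. Lung cancer cell lines in 1536-well plates were dosed by pin tool a day after seeding, alone with one drug or with a fixed anchor-drug dose plus five library-drug doses (not always all listed) in √10 steps, and nuclei were counted after 5 days.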

[2] = compound: c1ccc2c(CCNc3ccc(Nc4ccncc4)cc3)c[nH]c2c1 [Serdemetan] + COc1cccc2cc(-c3nc([C@H]4CC[C@H](C(=O)O)CC4)n4ncnc(N)c34)[nH]c12 [OSI-027] (partner 0.5 µM)
Outline: as §1

[3] = compound: C1CC(C2=C(C1)C3=C(N2)C=CC(=C3)Cl)C(=O)N [Selisistat] + C[C@@H](Oc1cc(-c2cnn(C3CCNCC3)c2)cnc1N)c1c(Cl)ccc(F)c1Cl [Crizotinib] (partner 1 µM)
Outline: as §1

[4] = compound: C1CC(C2=C(C1)C3=C(N2)C=CC(=C3)Cl)C(=O)N [Selisistat] + COc1cccc2cc(-c3nc([C@H]4CC[C@H](C(=O)O)CC4)n4ncnc(N)c34)[nH]c12 [OSI-027] (partner 0.5 µM)
Outline: as §1

NCI-H1755
relative viability ([1]; first compound 0.4 µM): 0.787
relative viability ([1]; first compound 1.265 µM): 0.741
relative viability ([1]; first compound 4 µM): 0.74
relative viability ([1]; first compound 12.65 µM): 0.729
relative viability ([1]; first compound 40 µM): 0.781
relative viability ([2]; first compound 0.04 µM): 0.725
relative viability ([2]; first compound 0.1265 µM): 0.687
relative viability ([2]; first compound 0.4 µM): 0.686
relative viability ([2]; first compound 1.265 µM): 0.563
relative viability ([2]; first compound 4 µM): 0.568
relative viability ([3]; first compound 0.4 µM): 0.917
relative viability ([3]; first compound 1.265 µM): 0.927
relative viability ([3]; first compound 4 µM): 0.952
relative viability ([3]; first compound 12.65 µM): 0.82
relative viability ([3]; first compound 40 µM): 0.946
relative viability ([4]; first compound 0.4 µM): 0.745
relative viability ([4]; first compound 1.265 µM): 0.736
relative viability ([4]; first compound 4 µM): 0.739
relative viability ([4]; first compound 12.65 µM): 0.686
relative viability ([4]; first compound 40 µM): 0.746

HCC-78
relative viability ([1]; first compound 0.4 µM): 0.768
relative viability ([1]; first compound 1.265 µM): 0.794
relative viability ([1]; first compound 4 µM): 0.6
relative viability ([1]; first compound 12.65 µM): 0.66
relative viability ([1]; first compound 40 µM): 0.646
relative viability ([2]; first compound 0.04 µM): 0.401
relative viability ([2]; first compound 0.1265 µM): 0.297
relative viability ([2]; first compound 0.4 µM): 0.321
relative viability ([2]; first compound 1.265 µM): 0.308
relative viability ([2]; first compound 4 µM): 0.289
relative viability ([3]; first compound 0.4 µM): 0.341
relative viability ([3]; first compound 1.265 µM): 0.304
relative viability ([3]; first compound 4 µM): 0.3
relative viability ([3]; first compound 12.65 µM): 0.307
relative viability ([3]; first compound 40 µM): 0.345
relative viability ([4]; first compound 0.4 µM): 0.379
relative viability ([4]; first compound 1.265 µM): 0.346
relative viability ([4]; first compound 4 µM): 0.316
relative viability ([4]; first compound 12.65 µM): 0.382
relative viability ([4]; first compound 40 µM): 0.359

NCI-H322M
relative viability ([1]; first compound 0.4 µM): 0.812
relative viability ([1]; first compound 1.265 µM): 0.708
relative viability ([1]; first compound 12.65 µM): 0.747
relative viability ([1]; first compound 40 µM): 0.637
relative viability ([2]; first compound 0.04 µM): 0.52
relative viability ([2]; first compound 0.1265 µM): 0.56
relative viability ([2]; first compound 0.4 µM): 0.681
relative viability ([2]; first compound 1.265 µM): 0.509
relative viability ([2]; first compound 4 µM): 0.422
relative viability ([3]; first compound 0.4 µM): 0.959
relative viability ([3]; first compound 1.265 µM): 1.01
relative viability ([3]; first compound 12.65 µM): 0.903
relative viability ([3]; first compound 40 µM): 1.15
relative viability ([4]; first compound 0.4 µM): 0.607
relative viability ([4]; first compound 1.265 µM): 0.583
relative viability ([4]; first compound 4 µM): 0.461
relative viability ([4]; first compound 12.65 µM): 0.507
relative viability ([4]; first compound 40 µM): 0.576

NCI-H3122
relative viability ([1]; first compound 0.4 µM): 0.387
relative viability ([1]; first compound 1.265 µM): 0.502
relative viability ([1]; first compound 12.65 µM): 0.499
relative viability ([1]; first compound 40 µM): 0.4
relative viability ([2]; first compound 0.04 µM): 0.98
relative viability ([2]; first compound 0.1265 µM): 0.949
relative viability ([2]; first compound 0.4 µM): 0.943
relative viability ([2]; first compound 1.265 µM): 0.322
relative viability ([2]; first compound 4 µM): 0.974
relative viability ([3]; first compound 0.4 µM): 0.315
relative viability ([3]; first compound 1.265 µM): 0.235
relative viability ([3]; first compound 4 µM): 0.218
relative viability ([3]; first compound 12.65 µM): 0.296
relative viability ([3]; first compound 40 µM): 0.266
relative viability ([4]; first compound 0.4 µM): 0.9
relative viability ([4]; first compound 1.265 µM): 0.933
relative viability ([4]; first compound 4 µM): 0.444
relative viability ([4]; first compound 12.65 µM): 0.892
relative viability ([4]; first compound 40 µM): 1.01

COR-L23
relative viability ([1]; first compound 0.4 µM): 0.596
relative viability ([1]; first compound 1.265 µM): 0.423
relative viability ([1]; first compound 4 µM): 0.484
relative viability ([1]; first compound 12.65 µM): 0.436
relative viability ([1]; first compound 40 µM): 0.411
relative viability ([2]; first compound 0.04 µM): 0.796
relative viability ([2]; first compound 0.1265 µM): 0.712
relative viability ([2]; first compound 0.4 µM): 0.799
relative viability ([2]; first compound 1.265 µM): 0.658
relative viability ([2]; first compound 4 µM): 0.744
relative viability ([3]; first compound 0.4 µM): 0.621
relative viability ([3]; first compound 1.265 µM): 0.664
relative viability ([3]; first compound 4 µM): 0.635
relative viability ([3]; first compound 12.65 µM): 0.537
relative viability ([3]; first compound 40 µM): 0.581
relative viability ([4]; first compound 0.4 µM): 0.866
relative viability ([4]; first compound 1.265 µM): 0.803
relative viability ([4]; first compound 4 µM): 0.799
relative viability ([4]; first compound 12.65 µM): 0.653
relative viability ([4]; first compound 40 µM): 0.653

NCI-H2087
relative viability ([1]; first compound 0.4 µM): 0.34
relative viability ([1]; first compound 1.265 µM): 0.295
relative viability ([1]; first compound 12.65 µM): 0.263
relative viability ([1]; first compound 40 µM): 0.234
relative viability ([2]; first compound 0.04 µM): 0.548
relative viability ([2]; first compound 0.1265 µM): 0.641
relative viability ([2]; first compound 0.4 µM): 0.573
relative viability ([2]; first compound 1.265 µM): 0.324
relative viability ([2]; first compound 4 µM): 0.241
relative viability ([3]; first compound 0.4 µM): 0.847
relative viability ([3]; first compound 1.265 µM): 0.77
relative viability ([3]; first compound 4 µM): 1.13
relative viability ([3]; first compound 12.65 µM): 0.763
relative viability ([3]; first compound 40 µM): 0.784
relative viability ([4]; first compound 0.4 µM): 0.646
relative viability ([4]; first compound 1.265 µM): 0.645
relative viability ([4]; first compound 12.65 µM): 0.516
relative viability ([4]; first compound 40 µM): 0.652

LC-2-ad
relative viability ([1]; first compound 0.4 µM): 0.909
relative viability ([1]; first compound 1.265 µM): 0.797
relative viability ([1]; first compound 4 µM): 0.764
relative viability ([1]; first compound 12.65 µM): 0.821
relative viability ([1]; first compound 40 µM): 0.775
relative viability ([2]; first compound 0.04 µM): 0.716
relative viability ([2]; first compound 0.1265 µM): 0.85
relative viability ([2]; first compound 0.4 µM): 0.877
relative viability ([2]; first compound 1.265 µM): 0.659
relative viability ([2]; first compound 4 µM): 0.763
relative viability ([3]; first compound 0.4 µM): 0.468
relative viability ([3]; first compound 4 µM): 0.42
relative viability ([3]; first compound 12.65 µM): 0.433
relative viability ([3]; first compound 40 µM): 0.433
relative viability ([4]; first compound 0.4 µM): 0.987
relative viability ([4]; first compound 4 µM): 0.693
relative viability ([4]; first compound 12.65 µM): 0.85
relative viability ([4]; first compound 40 µM): 0.794

NCI-H1915
relative viability ([1]; first compound 0.4 µM): 0.268
relative viability ([1]; first compound 1.265 µM): 0.244
relative viability ([1]; first compound 4 µM): 0.264
relative viability ([1]; first compound 12.65 µM): 0.255
relative viability ([1]; first compound 40 µM): 0.277
relative viability ([2]; first compound 0.04 µM): 0.683
relative viability ([2]; first compound 0.1265 µM): 0.688
relative viability ([2]; first compound 0.4 µM): 0.586
relative viability ([2]; first compound 1.265 µM): 0.362
relative viability ([2]; first compound 4 µM): 0.566
relative viability ([3]; first compound 0.4 µM): 0.917
relative viability ([3]; first compound 1.265 µM): 0.87
relative viability ([3]; first compound 4 µM): 0.883
relative viability ([3]; first compound 12.65 µM): 0.885
relative viability ([3]; first compound 40 µM): 0.908
relative viability ([4]; first compound 0.4 µM): 0.678
relative viability ([4]; first compound 1.265 µM): 0.646
relative viability ([4]; first compound 4 µM): 0.425
relative viability ([4]; first compound 12.65 µM): 0.605
relative viability ([4]; first compound 40 µM): 0.646

NCI-H2023
relative viability ([1]; first compound 0.4 µM): 0.233
relative viability ([1]; first compound 1.265 µM): 0.198
relative viability ([1]; first compound 4 µM): 0.219
relative viability ([1]; first compound 12.65 µM): 0.216
relative viability ([1]; first compound 40 µM): 0.202
relative viability ([2]; first compound 0.04 µM): 0.395
relative viability ([2]; first compound 0.1265 µM): 0.383
relative viability ([2]; first compound 0.4 µM): 0.324
relative viability ([2]; first compound 1.265 µM): 0.255
relative viability ([2]; first compound 4 µM): 0.191
relative viability ([3]; first compound 0.4 µM): 0.69
relative viability ([3]; first compound 1.265 µM): 0.651
relative viability ([3]; first compound 4 µM): 0.636
relative viability ([3]; first compound 12.65 µM): 0.68
relative viability ([3]; first compound 40 µM): 0.576
relative viability ([4]; first compound 0.4 µM): 0.492
relative viability ([4]; first compound 1.265 µM): 0.405
relative viability ([4]; first compound 4 µM): 0.347
relative viability ([4]; first compound 12.65 µM): 0.401
relative viability ([4]; first compound 40 µM): 0.406
